Columns and labels:
Assay in all cases: relative viability (nuclei count vs DMSO), 5 days (fraction); higher = more cells survive
H3255 = system: H3255
Outline: (§1)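 Each reported value is a median over duplicate plates. It expresses relative viability: treated-well nuclei count divided by vehicle-well nuclei count. Lung cancer cell lines in 1536-well plates were dosed by pin tool a day after seeding, alone with one drug or with a fixed anchor-drug dose plus five library-drug doses (not always all listed) in √10 steps, and nuclei were counted after 5 days.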

NCI-H2126 = system: NCI-H2126
Outline: as §1

LCLC-97TM1 = system: LCLC-97TM1
Outline: as §1

NCI-H647 = system: NCI-H647
Outline: as §1

HOP-62 = system: HOP-62
Outline: as §1

LXF-289 = system: LXF-289
Outline: as §1

NCI-H1993 = system: NCI-H1993
Outline: as §1

NCI-H2023 = system: NCI-H2023
Outline: as §1

NCI-H2009 = system: NCI-H2009
Outline: as §1

NCI-H322M = system: NCI-H322M
Outline: as §1

NCI-H1734 = system: NCI-H1734
Outline: as §1

EPLC-272H = system: EPLC-272H
Outline: as §1

NCI-H1563 = system: NCI-H1563
Outline: as §1

NCI-H727 = system: NCI-H727
Outline: as §1

NCI-H2085 = system: NCI-H2085
Outline: as §1

NCI-H2347 = system: NCI-H2347
Outline: as §1

NCI-H661 = system: NCI-H661
Outline: as §1

PC-14 = system: PC-14
Outline: as §1

SW 1573 = system: SW 1573
Outline: as §1

NCI-H1915 = system: NCI-H1915
Outline: as §1

EMC-BAC-2 = system: EMC-BAC-2
Outline: as §1

SK-LU-1 = system: SK-LU-1
Outline: as §1

`COc1cc2nccc(Oc3ccc(NC(=O)Nc4cc(C)on4)c(Cl)c3)c2cc1OC` [Tivozanib] + CC(C)C[C@H](NC(=O)[C@H](Cc1ccccc1)NC(=O)c1cnccn1)B(O)O [Bortezomib] (partner 0.002 µM) was tested, and the relative viability (H3255; first compound 0.005 µM) was 0.739, the relative viability (H3255; first compound 0.01581 µM) was 0.823 and the relative viability (H3255; first compound 0.05 µM) was 0.795. It also gave a relative viability (H3255; first compound 0.1581 µM) of 0.582, a relative viability (H3255; first compound 0.5 µM) of 0.697 and a relative viability (NCI-H2126; first compound 0.005 µM) of 1.1. It also gave a relative viability (NCI-H2126; first compound 0.01581 µM) of 1.07, a relative viability (NCI-H2126; first compound 0.05 µM) of 1.14 and a relative viability (NCI-H2126; first compound 0.1581 µM) of 0.811. The relative viability (NCI-H2126; first compound 0.5 µM) was 1.11, the relative viability (LCLC-97TM1; first compound 0.005 µM) was 0.533 and the relative viability (LCLC-97TM1; first compound 0.01581 µM) was 0.584. The relative viability (LCLC-97TM1; first compound 0.05 µM) was 0.913, the relative viability (LCLC-97TM1; first compound 0.1581 µM) was 0.603 and the relative viability (LCLC-97TM1; first compound 0.5 µM) was 1. For the same compound, the relative viability (NCI-H647; first compound 0.005 µM) was 0.953, the relative viability (NCI-H647; first compound 0.01581 µM) was 0.886 and the relative viability (NCI-H647; first compound 0.05 µM) was 1.05. The relative viability (NCI-H647; first compound 0.1581 µM) was 0.941, the relative viability (NCI-H647; first compound 0.5 µM) was 0.957 and the relative viability (HOP-62; first compound 0.005 µM) was 0.708. It also gave a relative viability (HOP-62; first compound 0.01581 µM) of 0.659, a relative viability (HOP-62; first compound 0.05 µM) of 0.548 and a relative viability (HOP-62; first compound 0.1581 µM) of 0.565. For the same compound, the relative viability (HOP-62; first compound 0.5 µM) was 0.819, the relative viability (LXF-289; first compound 0.005 µM) was 0.952 and the relative viability (LXF-289; first compound 0.01581 µM) was 0.956. It also gave a relative viability (LXF-289; first compound 0.05 µM) of 0.959, a relative viability (LXF-289; first compound 0.1581 µM) of 1.03 and a relative viability (LXF-289; first compound 0.5 µM) of 0.964. The relative viability (NCI-H1993; first compound 0.005 µM) was 0.981, the relative viability (NCI-H1993; first compound 0.01581 µM) was 1.02 and the relative viability (NCI-H1993; first compound 0.05 µM) was 1.39. For the same compound, the relative viability (NCI-H1993; first compound 0.1581 µM) was 0.647, the relative viability (NCI-H1993; first compound 0.5 µM) was 1.13 and the relative viability (NCI-H2023; first compound 0.005 µM) was 0.909. For the same compound, the relative viability (NCI-H2023; first compound 0.01581 µM) was 1.07, the relative viability (NCI-H2023; first compound 0.05 µM) was 1 and the relative viability (NCI-H2023; first compound 0.1581 µM) was 0.853. For the same compound, the relative viability (NCI-H2023; first compound 0.5 µM) was 0.965, the relative viability (NCI-H2009; first compound 0.005 µM) was 0.945 and the relative viability (NCI-H2009; first compound 0.01581 µM) was 1.02. The relative viability (NCI-H2009; first compound 0.05 µM) was 1.04, the relative viability (NCI-H2009; first compound 0.1581 µM) was 1.04 and the relative viability (NCI-H2009; first compound 0.5 µM) was 0.732. The relative viability (NCI-H322M; first compound 0.005 µM) was 1.24, the relative viability (NCI-H322M; first compound 0.01581 µM) was 1.21 and the relative viability (NCI-H322M; first compound 0.05 µM) was 1.18. For the same compound, the relative viability (NCI-H322M; first compound 0.1581 µM) was 1.05, the relative viability (NCI-H322M; first compound 0.5 µM) was 1.28 and the relative viability (NCI-H1734; first compound 0.005 µM) was 0.757. It also gave a relative viability (NCI-H1734; first compound 0.01581 µM) of 0.904, a relative viability (NCI-H1734; first compound 0.05 µM) of 1.01 and a relative viability (NCI-H1734; first compound 0.1581 µM) of 0.677. For the same compound, the relative viability (NCI-H1734; first compound 0.5 µM) was 0.854, the relative viability (EPLC-272H; first compound 0.005 µM) was 0.967 and the relative viability (EPLC-272H; first compound 0.01581 µM) was 0.856. For the same compound, the relative viability (EPLC-272H; first compound 0.05 µM) was 0.949, the relative viability (EPLC-272H; first compound 0.1581 µM) was 0.727 and the relative viability (EPLC-272H; first compound 0.5 µM) was 0.676. For the same compound, the relative viability (NCI-H1563; first compound 0.005 µM) was 0.766, the relative viability (NCI-H1563; first compound 0.01581 µM) was 0.964 and the relative viability (NCI-H1563; first compound 0.05 µM) was 0.896. The relative viability (NCI-H1563; first compound 0.1581 µM) was 0.776, the relative viability (NCI-H1563; first compound 0.5 µM) was 0.829 and the relative viability (NCI-H727; first compound 0.005 µM) was 0.701. The relative viability (NCI-H727; first compound 0.01581 µM) was 0.818, the relative viability (NCI-H727; first compound 0.05 µM) was 0.772 and the relative viability (NCI-H727; first compound 0.5 µM) was 0.873. For the same compound, the relative viability (NCI-H2085; first compound 0.005 µM) was 1.02, the relative viability (NCI-H2085; first compound 0.01581 µM) was 1.1 and the relative viability (NCI-H2085; first compound 0.05 µM) was 1.07. The relative viability (NCI-H2085; first compound 0.1581 µM) was 1.04, the relative viability (NCI-H2085; first compound 0.5 µM) was 0.846 and the relative viability (NCI-H2347; first compound 0.005 µM) was 0.875. It also gave a relative viability (NCI-H2347; first compound 0.01581 µM) of 0.818, a relative viability (NCI-H2347; first compound 0.05 µM) of 1.18 and a relative viability (NCI-H2347; first compound 0.5 µM) of 0.986. For the same compound, the relative viability (NCI-H661; first compound 0.005 µM) was 0.682, the relative viability (NCI-H661; first compound 0.01581 µM) was 0.818 and the relative viability (NCI-H661; first compound 0.05 µM) was 0.753. It also gave a relative viability (NCI-H661; first compound 0.1581 µM) of 0.717, a relative viability (NCI-H661; first compound 0.5 µM) of 0.85 and a relative viability (PC-14; first compound 0.005 µM) of 0.821. It also gave a relative viability (PC-14; first compound 0.01581 µM) of 0.847, a relative viability (PC-14; first compound 0.05 µM) of 0.99 and a relative viability (PC-14; first compound 0.1581 µM) of 0.811. For the same compound, the relative viability (PC-14; first compound 0.5 µM) was 0.812, the relative viability (SW 1573; first compound 0.005 µM) was 1.02 and the relative viability (SW 1573; first compound 0.01581 µM) was 1.01. It also gave a relative viability (SW 1573; first compound 0.05 µM) of 0.936, a relative viability (SW 1573; first compound 0.1581 µM) of 0.772 and a relative viability (SW 1573; first compound 0.5 µM) of 0.831. For the same compound, the relative viability (NCI-H1915; first compound 0.005 µM) was 0.945, the relative viability (NCI-H1915; first compound 0.01581 µM) was 0.986 and the relative viability (NCI-H1915; first compound 0.05 µM) was 0.952. The relative viability (NCI-H1915; first compound 0.1581 µM) was 0.921, the relative viability (NCI-H1915; first compound 0.5 µM) was 0.884 and the relative viability (EMC-BAC-2; first compound 0.005 µM) was 1.05. The relative viability (EMC-BAC-2; first compound 0.01581 µM) was 1.07, the relative viability (EMC-BAC-2; first compound 0.05 µM) was 1.1 and the relative viability (EMC-BAC-2; first compound 0.1581 µM) was 0.769. The relative viability (EMC-BAC-2; first compound 0.5 µM) was 1.08, the relative viability (SK-LU-1; first compound 0.005 µM) was 0.931 and the relative viability (SK-LU-1; first compound 0.01581 µM) was 1.26. For the same compound, the relative viability (SK-LU-1; first compound 0.05 µM) was 1.2, the relative viability (SK-LU-1; first compound 0.1581 µM) was 0.784 and the relative viability (SK-LU-1; first compound 0.5 µM) was 0.907.

— the supplement of paper PMC10307832
